Laboratory results published in ChEMBL document CHEMBL2375210, “Caulerprenylols A and B, two rare antifungal prenylated para-xylenes from the green alga Caulerpa racemosa” (Bioorg Med Chem Lett, 2013).
≈ marks a conversion by molar mass, not a printed value.

Key:
Trichophyton rubrum = test: Antifungal activity against Trichophyton rubrum Cmccftla after 24 hrs to 1 week; format: functional
A549 = test: Cytotoxicity against human A549 cells by MTT assay; format: cell-based
Aspergillus fumigatus = test: Antifungal activity against Aspergillus fumigatus ATCC 07544 after 24 hrs to 1 week; format: functional
Cryptococcus neoformans = test: Antifungal activity against Cryptococcus neoformans ATCC 32609 after 24 hrs to 1 week; format: functional
HL-60 = test: Cytotoxicity against human HL60 cells by MTT assay; format: cell-based
Nakaseomyces glabratus = test: Antifungal activity against Candida glabrata ATCC 537 after 24 hrs to 1 week; format: functional

SMILES	MIC80 (Trichophyton rubrum) [µg/mL]	IC50 (A549) [µM]	MIC80 (Aspergillus fumigatus) [µg/mL]	MIC80 (Cryptococcus neoformans) [µg/mL]	IC50 (HL-60) [µM]	MIC80 (Nakaseomyces glabratus) [µg/mL]
Cc1ccc(C)c(/C=C/C(C)(C)O)c1/C=C/C(C)(C)O	64 (≈ 233 µM)	≥ 100	≥ 64	64 (≈ 233 µM)	≥ 100	64 (≈ 233 µM)
CC(C)=C[C@H]1c2c(C)ccc(C)c2[C@@H](O)[C@@H]1C(C)(C)O (relative stereo)	16 (≈ 58.3 µM)	≥ 100	≥ 64	4 (≈ 14.6 µM)	≥ 100	4 (≈ 14.6 µM)
C[C@@H]1[C@H](O)[C@@H](C)/C=C/C=C/C=C/C=C/C=C/C=C/C=C/[C@H](O[C@@H]2O[C@H](C)[C@@H](O)[C@H](N)[C@@H]2O)C[C@@H]2O[C@](O)(C[C@@H](O)C[C@@H](O)[C@H](O)CC[C@@H](O)C[C@@H](O)CC(=O)O[C@H]1C)C[C@H](O)[C@H]2C(=O)O [AMPHOTERICIN B]	1 (≈ 1.08 µM)			4 (≈ 4.33 µM)		2 (≈ 2.16 µM)
COc1cccc2c1C(=O)c1c(O)c3c(c(O)c1C2=O)C[C@@](O)(C(=O)CO)C[C@@H]3O[C@H]1C[C@H](N)[C@H](O)[C@H](C)O1 [DOXORUBICIN]					0.12	
